Patent publication US20230248741A1, “Compositions and Methods for Lowering Triglycerides in a Subject with Reduced Kidney Function and Diabetes Mellitus” (Amarin Pharmaceuticals Ireland Limited, priority 2018, published 2023)

Legend:
[1] = tested on: patients with diabetes mellitus and eGFR <90 mL/min/1.73 m^2 for ≥3 months; assay: ANCHOR post-hoc (diabetes mellitus, eGFR <90): adverse events and renal parameters; type: in vivo, human
Protocol: Safety assessments will include adverse events, clinical laboratory measurements (chemistry, hematology, and urinalysis), 12-lead electrocardiograms (ECGs), vital signs, and physical examinations.
CVD-related (e.g., atherogenic) parameters were analyzed in a post-hoc study of 198 patients from the multi-center, placebo-controlled, randomized double-blind, 12-week study described in Example 1. These 198 patients have reduced kidney reduced function (e.g., eGFR<90 mL/min/1.73 m^2 for ≥3 months) and diabetes mellitus.
In this study, 6 patients in the placebo group discontinued (i.e., withdrawal with consent [n=2]; adverse event [n=2]; death [n=1]; other reason [n=1] and 4 patients from the 4 g/day group discontinued (i.e., adverse event [n=3] and other reason [n=1]). The death in the placebo group was due to myocardial infarction and not considered to be assigned to the investigational agent.

[2] = Essential fatty acids in plasma and RBC by gas chromatography, 6-week AAMI study; type: in vivo, human
Protocol: Blood samples (10 mL) were collected at Visit 1 (screening) and at Visits 4, 5, and 6. Analysis was performed by MSR Lipid Analysis, Scottish Crop Research Institute, Dundee, UK. The screening sample acted as baseline for the EFA measurements. Lipid was extracted from plasma, serum, and RBC suspensions and converted into fatty acid methyl esters which were analyzed by gas chromatography to give fatty acid profiles as micrograms fatty acid per gram of sample (mFA/g) and normalized area percent.
RBC and plasma EFA data were collected at baseline, Day 14, 28, and 42 and summarized by visit for each treatment group. Change from baseline and percent change from baseline were also summarized. ANCOVA comparison of E-EPA dose groups and E-EPA versus placebo was performed.
Notable changes for these parameters occurred in the E-EPA treatment groups at Days 14, 28, and 42 compared to placebo.

## CC/C=C\C/C=C\C/C=C\C/C=C\C/C=C\CCCC(=O)OCC [E-EPA, ethyl eicosapentaenoate]
[1]; 4 g/day
  renal function: no negative impact on renal function
[1]; 4 g/day (n = 100)
  Patients With TEAEs: Any TEAE: 49 (49.0) n (%)
  Patients With TEAEs: Arthralgia: 1 (1.0) n (%)
  Patients With TEAEs: Diarrhea: 5 (5.0) n (%)
  Patients With TEAEs: Nasopharyngitis: 1 (1.0) n (%)
  Patients With TEAEs: Nausea: 3 (3.0) n (%)
[1]; 4 g/day group, 4 discontinued in total
  patients discontinued due to adverse event: 3 n
[1]; 4 g/day, before 0.9 mg/dL, no significant change
  serum creatinine after 12 weeks: 0.9 mg/dL
[1]; 4 g/day, before 18 mg/dL, no significant change
  BUN after 12 weeks: 18 mg/dL
[1]; 4 g/day, before 4.5 g/dL, no significant change
  albumin after 12 weeks: 4.5 g/dL
[1]; 4 g/day, before 75.4, no significant change
  eGFR after 12 weeks: 79.1 mL/min/1.73 m^2
[2]; 1 g daily, Day 14
  AA Plasma Mean change from Baseline: -9.7 µg/g
  AA RBC Mean change from Baseline: -8.1 µg/g
  DGLA Plasma Mean change from Baseline: -10.4 µg/g
  DGLA RBC Mean change from Baseline: -2.7 µg/g
  DHA Plasma Mean change from Baseline: -6.4 µg/g
  DHA RBC Mean change from Baseline: -4.6 µg/g
  DPAn-3 Plasma Mean change from Baseline: 7.5 µg/g
  DPAn-3 RBC Mean change from Baseline: 0.9 µg/g
[2]; 1 g daily, Day 28
  AA Plasma Mean change from Baseline: -11.3 µg/g
  AA RBC Mean change from Baseline: -17.0 µg/g
  DGLA Plasma Mean change from Baseline: -10.6 µg/g
  DGLA RBC Mean change from Baseline: -3.8 µg/g
  DHA Plasma Mean change from Baseline: -6.6 µg/g
  DHA RBC Mean change from Baseline: -6.4 µg/g
  DPAn-3 Plasma Mean change from Baseline: 8.9 µg/g
  DPAn-3 RBC Mean change from Baseline: 3.3 µg/g
[2]; 1 g daily, Day 42
  AA Plasma Mean change from Baseline: -8.7 µg/g
  AA RBC Mean change from Baseline: -14.2 µg/g
  DGLA Plasma Mean change from Baseline: -9.4 µg/g
  DGLA RBC Mean change from Baseline: -3.5 µg/g
  DHA Plasma Mean change from Baseline: -5.4 µg/g
  DHA RBC Mean change from Baseline: -7.0 µg/g
  DPAn-3 Plasma Mean change from Baseline: 11.3 µg/g
  DPAn-3 RBC Mean change from Baseline: 6.5 µg/g
[2]; 1 g daily, baseline
  AA Plasma Baseline Mean: 202.5 µg/g
  AA RBC Baseline Mean: 171.2 µg/g
  DGLA Plasma Baseline Mean: 51.2 µg/g
  DGLA RBC Baseline Mean: 23.0 µg/g
  DHA Plasma Baseline Mean: 73.1 µg/g
  DHA RBC Baseline Mean: 66.5 µg/g
  DPAn-3 Plasma Baseline Mean: 21.1 µg/g
  DPAn-3 RBC Baseline Mean: 34.1 µg/g
[2]; 1 g versus 4 g
  AA Plasma LS Mean, 1 or 2 g versus 4 g: 4.2 µg/g
  AA RBC LS Mean, 1 or 2 g versus 4 g: 8.4 µg/g
  DGLA Plasma LS Mean, 1 or 2 g versus 4 g: 3.7 µg/g
  DGLA RBC LS Mean, 1 or 2 g versus 4 g: 1.5 µg/g
  DHA Plasma LS Mean, 1 or 2 g versus 4 g: -0.8 µg/g
  DHA RBC LS Mean, 1 or 2 g versus 4 g: 1.0 µg/g
  DPAn-3 Plasma LS Mean, 1 or 2 g versus 4 g: -15.1 µg/g
  DPAn-3 RBC LS Mean, 1 or 2 g versus 4 g: -6.2 µg/g
[2]; 2 g daily, Day 14
  AA Plasma Mean change from Baseline: -13.9 µg/g
  AA RBC Mean change from Baseline: -3.1 µg/g
  DGLA Plasma Mean change from Baseline: -14.1 µg/g
  DGLA RBC Mean change from Baseline: -2.6 µg/g
  DHA Plasma Mean change from Baseline: -5.4 µg/g
  DHA RBC Mean change from Baseline: -2.0 µg/g
  DPAn-3 Plasma Mean change from Baseline: 17.4 µg/g
  DPAn-3 RBC Mean change from Baseline: 5.6 µg/g
[2]; 2 g daily, Day 28
  AA Plasma Mean change from Baseline: 21.6 µg/g
  AA RBC Mean change from Baseline: -14.1 µg/g
